Measured values taken from US7045343B2, “Sterilization indicator test packs” (3M Innovative Properties Company, priority 1998, dated 2006).

Legend:
[1] = test system: enzyme associated with Bacillus stearothermophilus spores; assay: Rapid enzyme fluorescence readout of dual rapid readout indicators after prevacuum steam sterilization; format: biochemical; conditions: 4-pulse prevacuum steam 121° C., 7–13 min
Description: (§1) The indicators prepared for the Examples were dual rapid readout indicators that provided both a rapid, enzyme-based efficacy test and a confirmatory spore outgrowth test. Spores coated on the carrier strip 16 served as the source of active enzyme whose activity was measured by the rapid enzyme test. These same spores were then incubated in the spore outgrowth portion of the test.
(§2) Bacillus stearothermophilus, commercially available as ATCC 7953 from American Type Culture Collection, Rockville, Md., was grown overnight (16 hours) at 58° C. in tryptic soy broth. This culture was used to inoculate the surface of agar plates consisting of 8 g/l nutrient broth, 4 g/l yeast extract, 0.1 g/l manganese chloride and 20 g/l agar at pH 7.2. Plates were incubated at 58° C. for 72 hours. Spores were scraped from the plates and suspended in sterile distilled water. The spores were separated from the vegetative debris by centrifuging the suspension at 7000 rpm and 4° C. for 20 minutes. The supernatant was poured off and the spores were resuspended in sterile distilled water. The cleaning procedure was repeated several times. After the final wash, the spores were suspended in sterile distilled water, at a concentration of approximately 1×10^8 spores per milliliter.
(§3) The spores were then treated with the chemicals identified in Tables 1–5. All chemicals tested were obtained from commercial sources. The spores were centrifuged at 6000 rpm for 10 minutes. The supernatant and coating chemical mixtures were heated at 60–80° C. for several minutes and vortexed to get the material into solution. The spores were then mixed into the sterilant-resistant chemical solution. The sterilant-resistant chemical solution was applied to 5×25 mm, 591 A paper strips (Schleicher & Schuell, Inc., Keene, N.H.) by pipetting 10–15 microliters to each strip for a final population of about 1×10^6 spores per strip. The strips were dried 16 hours at 37° C.
(§4) The treated spore strips were placed on the bottom of the outer container 12 of the indicator 10 and a barrier was inserted between the spore strip 16 and the inner container 18, which contained enzyme substrate. A […] ( 11/16 inch) disc of polypropylene blown microfiber material, with a weight of 200 g/m^2, commercially available as “THINSULATE™ 200-B brand Thermal Insulation” from 3M Company, St. Paul, Minn., was used as the barrier. The inner container 18 contained 0.67 ml nutrient medium, consisting of 17 g of a bacteriological peptone and a 0.17 g/l of L-alanine, as well as 0.1 g 4-methylumbelliferyl-alpha-D-glucoside, commercially available from Sigma Chemical Company, St. Louis, Mo., dissolved in 200 microliters of N,N-dimethylformamide, and 0.03 g bromocresol purple pH indicator dye, per liter of water. The pH of the enzyme substrate and nutrient medium solution was adjusted to 7.6 with 0.1N sodium hydroxide.
(§5) Sterilization indicators were made as described above with each of the chemicals and concentrations described in Table 1. Control indicators were made using untreated spores. The indicators were placed in metal instrument trays and exposed at 121° C. in a Getinge Steam Sterilizer (Getinge International, Inc., 1100 Towbin Ave., Lakewood, N.J.) using a 4-pulse prevacuum cycle at 121° C. with a vacuum level of 0.075–0.085 bar and a steam pulse to 1.00 bar for each pulse. Indicators were exposed in the sterilizer for between 7 and 13 minutes. This cycle is depicted in the time-pressure diagram in FIG. 5. After exposure the inner containers containing the enzyme substrate and nutrient medium were crushed and the indicators were incubated at 60° C. The indicators were examined for fluorescence using a 3M™ ATTEST™ Model 190 Rapid Autoreader, commercially available from 3M Company, St. Paul, Minn. Additionally, spore growth, as indicated by a color change from purple to yellow, was determined visually after 168 hours of incubation at 60° C. […]

[2] = test system: Bacillus stearothermophilus spores; assay: Spore outgrowth (color change) of indicators after prevacuum steam sterilization; format: cell-based; conditions: 4-pulse prevacuum steam 121° C., 7–13 min
Description: as §1, §2, §3, §4, §5

Tetraglyceryl Monostearate
FLUORESCENCE - PERCENT POSITIVE 1 HR ([1]; Example 1, 5 mg/ml coating): 0%
FLUORESCENCE - PERCENT POSITIVE 2 HR ([1]; Example 1, 5 mg/ml coating): 43.2%
FLUORESCENCE - PERCENT POSITIVE 3 HR ([1]; Example 1, 5 mg/ml coating): 67.6%
FLUORESCENCE - PERCENT POSITIVE 4 HR ([1]; Example 1, 5 mg/ml coating): 83.8%
FLUORESCENCE - PERCENT POSITIVE 5 HR ([1]; Example 1, 5 mg/ml coating): 94.6%
FLUORESCENCE - PERCENT POSITIVE 6 HR ([1]; Example 1, 5 mg/ml coating): 97.3%
FLUORESCENCE - PERCENT POSITIVE 1 HR ([1]; Example 1, 10 mg/ml coating): 0%
FLUORESCENCE - PERCENT POSITIVE 2 HR ([1]; Example 1, 10 mg/ml coating): 63.0%
FLUORESCENCE - PERCENT POSITIVE 3 HR ([1]; Example 1, 10 mg/ml coating): 81.5%
FLUORESCENCE - PERCENT POSITIVE 4 HR ([1]; Example 1, 10 mg/ml coating): 94.4%
FLUORESCENCE - PERCENT POSITIVE 5 HR ([1]; Example 1, 10 mg/ml coating): 96.3%
FLUORESCENCE - PERCENT POSITIVE 6 HR ([1]; Example 1, 10 mg/ml coating): 98.1%
FLUORESCENCE - PERCENT POSITIVE 1 HR ([1]; Example 1, 20 mg/ml coating): 0%
FLUORESCENCE - PERCENT POSITIVE 2 HR ([1]; Example 1, 20 mg/ml coating): 74.3%
FLUORESCENCE - PERCENT POSITIVE 3 HR ([1]; Example 1, 20 mg/ml coating): 92.9%
FLUORESCENCE - PERCENT POSITIVE 4 HR ([1]; Example 1, 20 mg/ml coating): 100.0%
FLUORESCENCE - PERCENT POSITIVE 5 HR ([1]; Example 1, 20 mg/ml coating): 100.0%
FLUORESCENCE - PERCENT POSITIVE 6 HR ([1]; Example 1, 20 mg/ml coating): 100.0%
FLUORESCENCE - PERCENT POSITIVE 1 HR ([1]; Example 1, 40 mg/ml coating): 0%
FLUORESCENCE - PERCENT POSITIVE 2 HR ([1]; Example 1, 40 mg/ml coating): 94.7%
FLUORESCENCE - PERCENT POSITIVE 3 HR ([1]; Example 1, 40 mg/ml coating): 100.0%
FLUORESCENCE - PERCENT POSITIVE 4 HR ([1]; Example 1, 40 mg/ml coating): 100.0%
FLUORESCENCE - PERCENT POSITIVE 5 HR ([1]; Example 1, 40 mg/ml coating): 100.0%
FLUORESCENCE - PERCENT POSITIVE 6 HR ([1]; Example 1, 40 mg/ml coating): 100.0%
NO. GROWTH POSITIVE 168 HR ([2]; Example 1, 5 mg/ml coating): 37
NO. GROWTH POSITIVE 168 HR ([2]; Example 1, 10 mg/ml coating): 54
NO. GROWTH POSITIVE 168 HR ([2]; Example 1, 20 mg/ml coating): 70
NO. GROWTH POSITIVE 168 HR ([2]; Example 1, 40 mg/ml coating): 19

OCC(O)COCC(O)COCC(O)COCC(O)COCC(O)COCC(O)COCC(O)COCC(O)COCC(O)COCC(O)CO (stereo not shown) [Decaglycerol]
FLUORESCENCE - PERCENT POSITIVE 1 HR ([1]; Example 2, 5 mg/ml coating): 0%
FLUORESCENCE - PERCENT POSITIVE 2 HR ([1]; Example 2, 5 mg/ml coating): 0%
FLUORESCENCE - PERCENT POSITIVE 3 HR ([1]; Example 2, 5 mg/ml coating): 0%
FLUORESCENCE - PERCENT POSITIVE 4 HR ([1]; Example 2, 5 mg/ml coating): 23.1%
FLUORESCENCE - PERCENT POSITIVE 5 HR ([1]; Example 2, 5 mg/ml coating): 23.1%
FLUORESCENCE - PERCENT POSITIVE 6 HR ([1]; Example 2, 5 mg/ml coating): 30.8%
FLUORESCENCE - PERCENT POSITIVE 1 HR ([1]; Example 2, 10 mg/ml coating): 0%
FLUORESCENCE - PERCENT POSITIVE 2 HR ([1]; Example 2, 10 mg/ml coating): 0%
FLUORESCENCE - PERCENT POSITIVE 3 HR ([1]; Example 2, 10 mg/ml coating): 7.7%
FLUORESCENCE - PERCENT POSITIVE 4 HR ([1]; Example 2, 10 mg/ml coating): 23.1%
FLUORESCENCE - PERCENT POSITIVE 5 HR ([1]; Example 2, 10 mg/ml coating): 23.1%
FLUORESCENCE - PERCENT POSITIVE 6 HR ([1]; Example 2, 10 mg/ml coating): 30.8%
FLUORESCENCE - PERCENT POSITIVE 1 HR ([1]; Example 2, 20 mg/ml coating): 0%
FLUORESCENCE - PERCENT POSITIVE 2 HR ([1]; Example 2, 20 mg/ml coating): 0%
FLUORESCENCE - PERCENT POSITIVE 3 HR ([1]; Example 2, 20 mg/ml coating): 9.1%
FLUORESCENCE - PERCENT POSITIVE 4 HR ([1]; Example 2, 20 mg/ml coating): 18.2%
FLUORESCENCE - PERCENT POSITIVE 5 HR ([1]; Example 2, 20 mg/ml coating): 45.5%
FLUORESCENCE - PERCENT POSITIVE 6 HR ([1]; Example 2, 20 mg/ml coating): 63.6%
FLUORESCENCE - PERCENT POSITIVE 1 HR ([1]; Example 2, 40 mg/ml coating): 0%
FLUORESCENCE - PERCENT POSITIVE 2 HR ([1]; Example 2, 40 mg/ml coating): 0%
FLUORESCENCE - PERCENT POSITIVE 3 HR ([1]; Example 2, 40 mg/ml coating): 7.7%
FLUORESCENCE - PERCENT POSITIVE 4 HR ([1]; Example 2, 40 mg/ml coating): 42.3%
FLUORESCENCE - PERCENT POSITIVE 5 HR ([1]; Example 2, 40 mg/ml coating): 46.2%
FLUORESCENCE - PERCENT POSITIVE 6 HR ([1]; Example 2, 40 mg/ml coating): 53.8%
FLUORESCENCE - PERCENT POSITIVE 1 HR ([1]; Example 2, 80 mg/ml coating): 0%
FLUORESCENCE - PERCENT POSITIVE 2 HR ([1]; Example 2, 80 mg/ml coating): 12.0%
FLUORESCENCE - PERCENT POSITIVE 3 HR ([1]; Example 2, 80 mg/ml coating): 36.0%
FLUORESCENCE - PERCENT POSITIVE 4 HR ([1]; Example 2, 80 mg/ml coating): 64.0%
FLUORESCENCE - PERCENT POSITIVE 5 HR ([1]; Example 2, 80 mg/ml coating): 72.0%
FLUORESCENCE - PERCENT POSITIVE 6 HR ([1]; Example 2, 80 mg/ml coating): 76.0%
FLUORESCENCE - PERCENT POSITIVE 1 HR ([1]; Example 2, 100 mg/ml coating): 0%
FLUORESCENCE - PERCENT POSITIVE 2 HR ([1]; Example 2, 100 mg/ml coating): 6.9%
FLUORESCENCE - PERCENT POSITIVE 3 HR ([1]; Example 2, 100 mg/ml coating): 48.3%
FLUORESCENCE - PERCENT POSITIVE 4 HR ([1]; Example 2, 100 mg/ml coating): 69.0%
FLUORESCENCE - PERCENT POSITIVE 5 HR ([1]; Example 2, 100 mg/ml coating): 79.3%
FLUORESCENCE - PERCENT POSITIVE 6 HR ([1]; Example 2, 100 mg/ml coating): 89.7%
NO. GROWTH POSITIVE 168 HR ([2]; Example 2, 5 mg/ml coating): 13
NO. GROWTH POSITIVE 168 HR ([2]; Example 2, 10 mg/ml coating): 13
NO. GROWTH POSITIVE 168 HR ([2]; Example 2, 20 mg/ml coating): 11
NO. GROWTH POSITIVE 168 HR ([2]; Example 2, 40 mg/ml coating): 26
NO. GROWTH POSITIVE 168 HR ([2]; Example 2, 80 mg/ml coating): 25
NO. GROWTH POSITIVE 168 HR ([2]; Example 2, 100 mg/ml coating): 29
